Consider 26 compounds from ChEMBL document CHEMBL4811294, “Synthesis and biological activity of conformationally restricted indole-based inhibitors of neurotropic alphavirus replication: Generation of a three-dimensional pharmacophore” (Bioorg Med Chem Lett, 2021).

SMILES strings stand for the structures.

A short description of data set [1]: Cytotoxicity against golden hamster BSR-T7 cells assessed as reduction in cell viability measured after 18 to 24 hrs by MTT assay. The class given is cell-based, Mesocricetus auratus, BSR-T7/5.
Data set [2] concerns Western equine encephalitis virus. In words: Antiviral activity against Western equine encephalitis virus infected in BSR-T7 cells assessed as inhibition of viral genome replicon replication measured after 18 to 24 hrs by luciferase assay. It is filed as functional, organism-based. The conditions noted are these: BSR-T7/5. A general note: In antiviral work, replicon cells carry a viral genome segment that copies itself.

The nature of data set [3]: Antiviral activity against FMV infected in human BE2C cells assessed as reduction in virus-induced cytopathicity at 25 uM relative to control. A general note: Cytopathic effects are the visible damage that an infection or toxin causes in cultured cells.
The nature of data set [4]: Antiviral activity against FMV infected in human BE2C cells assessed as reduction in virus-induced cytopathicity by measuring cell viability at 5 uM (reference value: 19.6 +/-4%).
Data set [5] is described as follows: Antiviral activity against FMV infected in human BE2C cells assessed as reduction in virus-induced cytopathicity by measuring cell viability at 25 uM (reference value: 19.6 +/-4%).
Data set [6] is described as follows: Antiviral activity against FMV infected in human BE2C cells assessed as reduction in virus-induced cytopathicity at 5 uM relative to control.

`O=C(NCCc1ccncc1)[C@H]1[C@@H]2CCN(C(=O)c3cc4ccccc4n3Cc3ccc(Cl)cc3)C[C@@H]21`: the CC50 in data set [1] (bsr-t7/5, time 18-24 hrs) was above 100 µM. Further, the IC50 in data set [2] was determined as 24.6 µM.

For the compound `O=C(c1cc2ccccc2n1Cc1ccc(Cl)cc1)N1CCC(C(=O)N2CCc3ccccc32)CC1`, in data set [1] (bsr-t7/5, time 18-24 hrs), the CC50 was above 100 µM. Besides, the IC50 in data set [2] was above 100 µM.

As to `O=C(NCCc1ccncc1)N1CCN(C(=O)c2cc3ccccc3n2Cc2ccc(Cl)cc2)CC1`, the CC50 in data set [1] (bsr-t7/5, time 18-24 hrs) is 78 µM. For the same compound, in data set [2], the IC50 was determined as 24.4 µM.

With `CN(CCc1ccncc1)C(=O)[C@@H]1C[C@H]2CC[C@@H](C1)N2C(=O)c1cc2ccccc2n1Cc1ccc(Cl)cc1`, in data set [1] (bsr-t7/5, time 18-24 hrs), the CC50 was 50.9 µM. In addition, in data set [2], the half-maximal inhibitory concentration (IC50) was 0.96 µM.

For `CC(NC(=O)C1CCN(C(=O)c2cc3ccccc3n2Cc2ccc(Cl)cc2)CC1)C1Cc2ccccc2C1` (racemic), the CC50 in data set [1] (bsr-t7/5, time 18-24 hrs) was above 100 µM. Moreover, the IC50 in data set [2] came out at 1.7 µM.

`O=C(NCCc1ccncc1)C1=CCN(C(=O)c2cc3ccccc3n2Cc2ccc(Cl)cc2)CC1`: in data set [1] (bsr-t7/5, time 18-24 hrs), the CC50 was found to be 74.2 µM. Besides, in data set [2], the IC50 was determined as 3.9 µM.

Turning to `O=C(c1cc2ccccc2n1Cc1ccc(Cl)cc1)N1CCC(C(=O)N2Cc3ccccc3C2)CC1`, the CC50 in data set [1] (bsr-t7/5, time 18-24 hrs) was above 100 µM. Moreover, the IC50 in data set [2] is above 100 µM.

Turning to `O=C(NCC1Cc2ccccc2C1)C1CCN(C(=O)c2cc3ccccc3n2Cc2ccc(Cl)cc2)CC1`, in data set [1] (bsr-t7/5, time 18-24 hrs), the CC50 was above 100 µM. For the same compound, the IC50 in data set [2] came to 0.53 µM.

With `O=C(c1cc2ccccc2n1Cc1ccc(Cl)cc1)N1CCC(C(=O)N2CCC(c3ccccc3)C2)CC1` (stereo not drawn), the CC50 in data set [1] (bsr-t7/5, time 18-24 hrs) was above 100 µM. Moreover, the IC50 in data set [2] is above 100 µM.

With `Cc1cccc2cc(C(=O)N3CCC(C(=O)NCc4ccccc4)CC3)n(Cc3ccc(Cl)cc3)c12`, the CC50 in data set [1] (bsr-t7/5, time 18-24 hrs) was above 100 µM. Moreover, in data set [2], the IC50 came to 61 µM.

In the case of `O=C(NCCc1ccncc1)C1CC2(C1)CN(C(=O)c1cc3ccccc3n1Cc1ccc(Cl)cc1)C2`, in data set [1] (bsr-t7/5, time 18-24 hrs), the CC50 is 56.5 µM. Moreover, the IC50 in data set [2] worked out at 10.9 µM.

Consider `O=C(CC1CCN(C(=O)c2cc3ccccc3n2Cc2ccc(Cl)cc2)CC1)NCc1ccncc1`, for which the CC50 in data set [1] (bsr-t7/5, time 18-24 hrs) was determined as 77.3 µM. Besides, the IC50 in data set [2] is 24.7 µM.

Regarding `CC1(C(=O)NCCc2ccncc2)CCN(C(=O)c2cc3ccccc3n2Cc2ccc(Cl)cc2)CC1`, the CC50 in data set [1] (bsr-t7/5, time 18-24 hrs) is above 50 µM. Moreover, the IC50 in data set [2] was above 50 µM.

`O=C(NCC1CCc2ccccc21)C1CCN(C(=O)c2cc3ccccc3n2Cc2ccc(Cl)cc2)CC1` (stereo not drawn): the CC50 in data set [1] (bsr-t7/5, time 18-24 hrs) was above 100 µM. The IC50 in data set [2] was found to be 7.1 µM.

With `O=C(NCCc1ccncc1)C1CCN(C(=O)c2cc3ccccc3n2Cc2ccc(Cl)cc2)CC1`, in data set [3], the “fold change (FC)” value was 2.

Consider `Cc1c(C(=O)N2CCC(C(=O)NCc3ccccc3)CC2)n(Cc2ccc(Cl)cc2)c2ccccc12`, for which the half-maximal cytotoxic concentration (CC50) in data set [1] (bsr-t7/5, time 18-24 hrs) is above 100 µM. In addition, in data set [2], the IC50 is above 100 µM.

Consider `O=C(NCc1ccccc1)C1CCN(C(=O)c2cc3ccccc3n2Cc2ccc(Cl)cc2)CC1`, for which the CC50 in data set [1] (BSR-T7 cells, time 18-24 hrs) is above 100 µM. Also, the IC50 in data set [2] turned out to be 30.6 µM.

In the case of `O=C(NC1CCc2ccccc21)C1CCN(C(=O)c2cc3ccccc3n2Cc2ccc(Cl)cc2)CC1` (stereo not drawn), in data set [1] (bsr-t7/5, time 18-24 hrs), the CC50 was above 100 µM. The IC50 in data set [2] is above 100 µM.

`O=C(NCCc1ccncc1)C1CCCN(C(=O)c2cc3ccccc3n2Cc2ccc(Cl)cc2)CC1` (stereo not drawn): the CC50 in data set [1] (bsr-t7/5, time 18-24 hrs) is 41.1 µM. Moreover, the IC50 in data set [2] turned out to be 0.49 µM. Besides, the Activity in data set [4] was found to be 36.1%; in data set [5], 22.9%. The “fold change (FC)” value in data set [6] is on record as 2.

On to `O=C(NC1Cc2ccccc2C1)C1CCN(C(=O)c2cc3ccccc3n2Cc2ccc(Cl)cc2)CC1`, for which the CC50 in data set [1] (bsr-t7/5, time 18-24 hrs) is above 100 µM. Besides, in data set [2], the IC50 was above 100 µM.

As to `O=C(CCc1ccncc1)NC1CCN(C(=O)c2cc3ccccc3n2Cc2ccc(Cl)cc2)CC1`, in data set [1] (bsr-t7/5, time 18-24 hrs), the CC50 amounted to 66.7 µM. In addition, the IC50 in data set [2] is 17.6 µM.

As to `O=C(c1cc2ccccc2n1Cc1ccc(Cl)cc1)N1CCC(/C=C\CCc2ccncc2)CC1`, in data set [1] (bsr-t7/5, time 18-24 hrs), the CC50 was above 50 µM. Moreover, the IC50 in data set [2] was above 50 µM.

With `O=C(c1cc2ccccc2n1Cc1ccc(Cl)cc1)N1CCC(/C=C/CCc2ccncc2)CC1`, in data set [2], the half-maximal inhibitory concentration (IC50) is above 50 µM.

For the compound `O=C(NCCCc1ccccc1)C1CCN(C(=O)c2cc3ccccc3n2Cc2ccc(Cl)cc2)CC1`, the CC50 in data set [1] (bsr-t7/5, time 18-24 hrs) was above 50 µM. Further, the IC50 in data set [2] was above 100 µM.

With `O=C(c1cc2ccccc2n1Cc1ccc(Cl)cc1)N1CC[C@H]2C(=O)N(CCc3ccncc3)C[C@H]2C1`, the CC50 in data set [1] (bsr-t7/5, time 18-24 hrs) amounted to 61 µM. For the same compound, the IC50 in data set [2] was 24.4 µM.

Take `O=C(c1cc2ccccc2n1Cc1ccc(Cl)cc1)N1CCC(C(=O)N2CCCC2c2ccccc2)CC1` (stereo not drawn): the CC50 in data set [1] (bsr-t7/5, time 18-24 hrs) was above 100 µM. Besides, the IC50 in data set [2] is above 100 µM.

A word on the CC50: it is the concentration giving 50% cytotoxicity. By IC50 is commonly meant the concentration that gives 50% inhibition.
